Assay results taken from patent US12110286B2, “Benzimidazolone derived inhibitors of BCL6” (Cancer Research Technology Limited, priority 2017, dated 2024).

Target: Trx-6×His-BCL6 (human BCL6 BTB domain covering amino-acid sequence 5-129) (Homo sapiens (Human), UniProt P41182)
Experiment: HTRF in vitro assay (BCL6 / BCOR-AF633 peptide)
Format: binding
Conditions: for activity in the HTRF assay: result in words
Experimental: The % inhibition at each concentration was calculated by normalising FRET ratio to the appropriate high (DMSO with all reagents) and low (DMSO without BCL6) controls.

[1] = further generated data, 1 nM Trx-6×His-BCL6, 300 nM BCOR-AF633 peptide, 0.5 nM anti-6×His-Terbium cryptate
[2] = initially generated data, 10 nM Trx-6×His-BCL6, 300 nM BCOR-AF633 peptide, 1 nM anti-6×His-Terbium cryptate

SMILES | HTRF pIC50 [1] | HTRF pIC50 [2] | activity in the HTRF assay
CCOC(=O)c1cc(Nc2ccc3c(c2)n(CC[C@@H](C)O)c(=O)n3C)n2nccc2n1 [Example 1o, Ethyl 7-[[3-[(3R)-3-hydroxybutyl]-1-methyl-2-oxo-benzimidazol-5-yl]amino]pyrazolo[1,5-a]pyrimidine-5-carboxylate] | 5.48 | 5.58 | 
Cn1c(=O)n(CC(O)C(C)(C)C)c2cc(Nc3ccnc(Cl)c3C#N)ccc21 (stereo not drawn) [2-chloro-4-((3-(2-hydroxy-3,3-dimethylbutyl)-1-methyl-2-oxo-2,3-dihydro-1H-benzo[d]imidazol-5-yl)amino)nicotinonitrile] |  |  | did not exhibit the desired activity
CCN(CC)CCn1c(=O)n(C)c2ccc(Nc3ccnc(Cl)c3C#N)cc21 [2-chloro-4-((3-(2-(diethylamino)ethyl)-1-methyl-2-oxo-2,3-dihydro-1H-benzo[d]imidazol-5-yl)amino)nicotinonitrile] |  |  | did not exhibit the desired activity
Cn1c(=O)n(CC2CC(C)(C)C2)c2cc(Nc3ccnc(Cl)c3C#N)ccc21 [2-chloro-4-((3-((3,3-dimethylcyclobutyl)methyl)-1-methyl-2-oxo-2,3-dihydro-1H-benzo[d]imidazol-5-yl)amino)nicotinonitrile] |  |  | did not exhibit the desired activity
COC(=O)C(O)CCn1c(=O)n(C)c2ccc(Nc3ccnc(Cl)c3C#N)cc21 (stereo not drawn) [Example 9, Methyl 4-[6-[(2-chloro-3-cyano-4-pyridyl)amino]-3-methyl-2-oxo-benzimidazol-1-yl]-2-hydroxy-butanoate] | 5.97 | 5.83 | 
C[C@@H](O)CCn1c(=O)n(C)c2ccc(Nc3ccnc(Cl)c3Cl)cc21 [Example 1q, 5-[(2,3-dichloro-4-pyridyl)amino]-3-[(3R)-3-hydroxybutyl]-1-methyl-benzimidazol-2-one] | 5.45 | 5.49 | 
Cc1cc(C)n(-c2ncc(Cl)c(Nc3ccc4c(c3)n(CCC(C)(O)CCO)c(=O)n4C)n2)n1 (stereo not drawn) [Example 15e] | 6.02 |  | 
CCC1(Cn2c(=O)n(C)c3ccc(Nc4nc(-n5ccc(C(F)(F)F)n5)ncc4Cl)cc32)CN(C)C(=O)O1 (stereo not drawn) [Example 20m] | 5.97 |  | 
COCCNc1cc(Nc2ccc3c(c2)n(C)c(=O)n3C)n2nccc2n1 [5-((5-((2-methoxyethyl)amino)pyrazolo[1,5-a]pyrimidin-7-yl)amino)-1,3-dimethyl-1,3-dihydro-2H-benzo[d]imidazol-2-one] |  |  | did not exhibit the desired activity
CC1OC(=O)NC1Cn1c(=O)n(C)c2ccc(Nc3ccnc(Cl)c3C#N)cc21 (stereo not drawn) [Example 34, 2-chloro-4-((1-methyl-3-((5-methyl-2-oxooxazolidin-4-yl)methyl)-2-oxo-2,3-dihydro-1H-benzo[d]imidazol-5-yl)amino)nicotinonitrile] | 5.31 |  | 
Cn1c(=O)n(CCC(C)(C)O)c2cc(Nc3ccnc(Cl)c3C#N)c(F)cc21 [Example 22f] | 5.75 |  | 
Cn1c(=O)n(C[C@@H]2CCCN2CC(F)(F)F)c2cc(Nc3nc(N4CC(C)(C)OC(C)(C)C4)ncc3Cl)ccc21 [Example 35i, (S)-5-((5-chloro-2-(2,2,6,6-tetramethylmorpholino)pyrimidin-4-yl)amino)-1-methyl-3-((1-(2,2,2-trifluoroethyl)pyrrolidin-2-yl)methyl)-1,3-dihydro-2H-benzo[d]imidazol-2-one] | 6.01 |  | 
Cn1c(=O)n(CC2CCCNC2)c2cc(Nc3ccnc(Cl)c3C#N)ccc21 (stereo not drawn) [2-chloro-4-((1-methyl-2-oxo-3-(piperidin-3-ylmethyl)-2,3-dihydro-1H-benzo[d]imidazol-5-yl)amino)nicotinonitrile] |  |  | did not exhibit the desired activity
COC(=O)c1cc(Nc2ccc3c(c2)n(CCC(C)C(=O)OC)c(=O)n3C)c(C#N)c(Cl)n1 (stereo not drawn) [Example 2a, Methyl 6-chloro-5-cyano-4-[[3-(4-methoxy-3-methyl-4-oxo-butyl)-1-methyl-2-oxo-benzimidazol-5-yl]amino]pyridine-2-carboxylate] | 6.18 | 6.41 | 
Cn1c(=O)n(CCC(C)(C)O)c2cc(Nc3ncnc(Cl)c3Cl)ccc21 [Example 22l] | 5.64 |  | 
Cn1c(=O)n(C)c2cc(Nc3ncncc3C#N)ccc21 [4-((1,3-dimethyl-2-oxo-2,3-dihydro-1H-benzo[d]imidazol-5-yl)amino)pyrimidine-5-carbonitrile] |  |  | did not exhibit the desired activity
CNC(=O)c1cc(Nc2ccc3c(c2)[nH]c(=O)n3C)c(C#N)c(Cl)n1 [Example 1f, 6-chloro-5-cyano-N-methyl-4-[(1-methyl-2-oxo-3H-benzimidazol-5-yl)amino]pyridine-2-carboxamide] | 5.59 | 5.84 | 
Cn1c(=O)n(CCC(C)(C)O)c2cc(Nc3cc(N4CCC[C@H]4CO)nc4c(C#N)cnn34)ccc21 [Example 31b, (S)-7-((3-(3-hydroxy-3-methylbutyl)-1-methyl-2-oxo-2,3-dihydro-1H-benzo[d]imidazol-5-yl)amino)-5-(2-(hydroxymethyl)pyrrolidin-1-yl)pyrazolo[1,5-a]pyrimidine-3-carbonitrile] | 5.73 |  | 

Next, values leading:

HTRF pIC50 [1] | HTRF pIC50 [2] | activity in the HTRF assay | SMILES
6.47 |  |  | C[C@@H]1CN(c2ncc(Cl)c(Nc3ccc4c(c3)n(CCC(C)(C)O)c(=O)n4CCN3CCOCC3)n2)C[C@H](C)C1(F)F [Example 37b, 5-((5-chloro-2-((3S,5R)-4,4-difluoro-3,5-dimethylpiperidin-1-yl)pyrimidin-4-yl)amino)-3-(3-hydroxy-3-methylbutyl)-1-(2-morpholinoethyl)-1,3-dihydro-2H-benzo[d]imidazol-2-one]
6.21 |  |  | Cn1c(=O)n(CCC(C)(C)O)c2cc(Nc3ccnc(F)c3Cl)ccc21 [Example 29a, 5-((3-chloro-2-fluoropyridin-4-yl)amino)-3-(3-hydroxy-3-methylbutyl)-1-methyl-1,3-dihydro-2H-benzo[d]imidazol-2-one]
6.07 |  |  | C[C@@H]1CN(C(=O)c2cc(Nc3ccc4c(c3)n(CCC(C)(C)O)c(=O)n4C)c(Cl)cn2)C[C@H](C)C1(F)F [Example 36f, 5-((5-chloro-2-((3S,5R)-4,4-difluoro-3,5-dimethylpiperidine-1-carbonyl)pyridin-4-yl)amino)-3-(3-hydroxy-3-methylbutyl)-1-methyl-1,3-dihydro-2H-benzo[d]imidazol-2-one]
6.16 |  |  | Cn1c(=O)n(CCC(C)(C)O)c2cc(Nc3nc(N4CC5CCC(C4)C5(F)F)ncc3Cl)ccc21 [Example 35s, 5-((5-chloro-2-(8,8-difluoro-3-azabicyclo[3.2.1]octan-3-yl)pyrimidin-4-yl)amino)-3-(3-hydroxy-3-methylbutyl)-1-methyl-1,3-dihydro-2H-benzo[d]imidazol-2-one]
6.85 |  |  | Cn1c(=O)n(CCC(C)(C)O)c2cc(Nc3nc(N4CCC(n5cccn5)CC4)ncc3Cl)ccc21 [Example 42i, 5-((2-(4-(1H-pyrazol-1-yl)piperidin-1-yl)-5-chloropyrimidin-4-yl)amino)-3-(3-hydroxy-3-methylbutyl)-1-methyl-1,3-dihydro-2H-benzo[d]imidazol-2-one]
5.54 |  |  | Cn1c(=O)n(CCC(C)(C)O)c2cc(Nc3nc(Cl)nc(Cl)c3Cl)ccc21 [Example 22i]
 |  | did not exhibit the desired activity | Cn1c(=O)n(CC2CCCN(C(=O)OC(C)(C)C)C2)c2cc(Nc3ccnc(Cl)c3C#N)ccc21 (stereo not drawn) [tert-butyl 3-((6-((2-chloro-3-cyanopyridin-4-yl)amino)-3-methyl-2-oxo-2,3-dihydro-1H-benzo[d]imidazol-1-yl)methyl)piperidine-1-carboxylate]
5.53 |  |  | CCOC(=O)/C=C/Cn1c(=O)n(CCC(C)(C)O)c2cc(Nc3nc(N4C[C@@H](C)C(F)(F)[C@@H](C)C4)ncc3Cl)ccc21 [Example 38a, ethyl(E)-4-(5-((5-chloro-2-((3S,5R)-4,4-difluoro-3,5-dimethylpiperidin-1-yl)pyrimidin-4-yl)amino)-3-(3-hydroxy-3-methylbutyl)-2-oxo-2,3-dihydro-1H-benzo[d]imidazol-1-yl)but-2-enoate]
5.94 | 5.79 |  | CCOC(=O)c1cc(Nc2ccc3c(c2)n(CCC(C)(C)O)c(=O)n3C)n2nccc2n1 [Example 1h, Ethyl 7-[[3-(3-hydroxy-3-methyl-butyl)-1-methyl-2-oxo-benzimidazol-5-yl]amino]pyrazolo[1,5-a]pyrimidine-5-carboxylate]
6.60 |  |  | Cn1c(=O)n(CCC(C)(C)O)c2cc(Nc3nc(N4CCC(C#N)CC4)ncc3Cl)ccc21 [Example 42a, 1-(5-chloro-4-((3-(3-hydroxy-3-methylbutyl)-1-methyl-2-oxo-2,3-dihydro-1H-benzo[d]imidazol-5-yl)amino)pyrimidin-2-yl)piperidine-4-carbonitrile]
5.87 |  |  | C[C@@H]1C[C@H](C)CN(c2ncc(Cl)c(Nc3cc4c(cc3F)n(C)c(=O)n4CCC(C)(C)O)n2)C1.O=CO [Example 20q]
 |  | did not exhibit the desired activity | Cn1c(=O)n(CCC(C)(C)O)c2cc(Nc3cc(-n4ccc(C(F)(F)F)n4)ncc3Cl)ncc21 [6-((5-chloro-2-(3-(trifluoromethyl)-1H-pyrazol-1-yl)pyridin-4-yl)amino)-1-(3-hydroxy-3-methylbutyl)-3-methyl-1,3-dihydro-2H-imidazo[4,5-c]pyridin-2-one]
6.05 |  |  | Cc1cc(-c2ncc(Cl)c(Nc3ccc4c(c3)n(CCC(C)(C)O)c(=O)n4C)n2)n(C)n1 [Example 23b]
6.04 |  |  | Cn1c(=O)n(CCC(C)(C)O)c2cc(Nc3nc(N4C[C@H]5CCCC[C@H]5C4)ncc3Cl)ccc21 [Example 35o, 5-((5-chloro-2-((3aR,7aS)-octahydro-2H-isoindo1-2-yl)pyrimidin-4-yl)amino)-3-(3-hydroxy-3-methylbutyl)-1-methyl-1,3-dihydro-2H-benzo[d]imidazol-2-one]
5.47 |  |  | Cn1c(=O)n(CCC(C)(C)O)c2cc(Nc3cc(Cl)nc4ccnn34)ccc21 [Example 22h]
